Laboratory results published in patent US20070003565A1 (priority 2003, published 2007).
In brackets after ≈: the same amount, converted by molar mass. Residues, ends and D or L forms follow the SMILES beside them.

Tests used:
No.04 coronavirus [1] = assay: microbe, parasite or virus in culture; details: Severe acute respiratory syndrome coronavirus
No.04 coronavirus [2] = tested on: No.04 coronavirus
MT-4 cells = assay: Cytotoxicity to MT-4 cells (MTT method); format: cell-based; details: 12000 ng/ml to 24 ng/ml, 6 days
Procedure: Then test drugs were added. […] Cell growth was subsequently determined by the MTT method.

Nc1nc(O)c2ncn(COC(CO)CO)c2n1 [Ganciclovir, ganciclovir]
IC50 (No.04 coronavirus [1]; HEK293, read-out: half-inhibitory concentration (IC50)): 11.7 mg/L (≈ 45.8 µM) | MIC (No.04 coronavirus [1]; read-out: minimum inhibitory concentration (MIC)): 23.4 mg/L (≈ 91.8 µM) | treatment index (TI) (No.04 coronavirus [2]; CPE method, 293 cells): 256

CC[C@H](C)[C@H](NC(=O)[C@@H](NC(=O)[C@@H]1CCCN1C(=O)[C@H](CC(=O)O)NC(=O)[C@H](Cc1c[nH]cn1)NC(=O)[C@@H](NC(=O)[C@@H](N)CCSC)[C@@H](C)O)C(C)C)C(=O)N[C@@H](CO)C(=O)N[C@@H](CC(C)C)C(=O)N1CCC[C@H]1C(=O)N[C@H](C(=O)N[C@H](C(=O)O)[C@@H](C)O)[C@@H](C)O [HAb18G-AP-1] (H-MTHDPVISLPTT-OH)
cell growth of MT-4 cells (in words) (MT-4 cells): cell growth was not affected

N=C(N)NCCC[C@H](NC(=O)[C@H](Cc1c[nH]cn1)NC(=O)[C@H](Cc1c[nH]c2ccccc12)NC(=O)[C@H](Cc1c[nH]cn1)NC(=O)[C@H](CCCCN)NC(=O)[C@H](Cc1c[nH]cn1)NC(=O)[C@H](Cc1c[nH]cn1)NC(=O)[C@H](Cc1ccccc1)NC(=O)[C@@H]1CCCN1C(=O)[C@@H](N)Cc1ccc(O)cc1)C(=O)N1CCC[C@H]1C(=O)N[C@@H](CC(N)=O)C(=O)O [HAb18G-AP-6, Tyr Pro Phe His His Lys His Typ His Arg Pro Asn] (H-YPFHHKHWHRPN-OH)
half-inhibitory concentration (IC50) (No.04 coronavirus [2]; 24 h): 31.25 ± 0 mg/L | minimum inhibitory concentration (MIC) (No.04 coronavirus [2]; 24 h): 62.25 ± 0 mg/L (≈ 37.6 µM) | cell growth of MT-4 cells (in words) (MT-4 cells): cell growth was not affected

CC(C)C[C@H](NC(=O)[C@H](CCCCN)NC(=O)[C@@H](N)Cc1ccc(O)cc1)C(=O)N1CCC[C@H]1C(=O)NCC(=O)N[C@@H](Cc1c[nH]cn1)C(=O)N[C@@H](Cc1c[nH]cn1)C(=O)N[C@@H](Cc1c[nH]cn1)C(=O)N[C@@H](Cc1c[nH]cn1)C(=O)N[C@@H](Cc1ccc(O)cc1)C(=O)N[C@@H](CCCNC(=N)N)C(=O)N1CCC[C@H]1C(=O)O [HAb18G-AP-9] (H-YKLPGHHHHYRP-OH)
cell growth of MT-4 cells (in words) (MT-4 cells): cell growth was not affected
